Results taken from patent US8114406B2, “Peptides and their utility in modulation of behavior of cells expressing α3β1 integrins” (The United States of America as represented by the …, priority 1999, dated 2012).
Read-outs that look alike come from different tables or passages of the source. Where a SMILES comes first, the peptide text is derived from it. Where no end group is shown, it is not given here.

Legend:
[1] = system: MDA-MB-435 breast carcinoma cells; experiment: Inhibition of MDA-MB-435 cell adhesion to immobilized peptide 678 (microscopic adhesion assay); type: cell-based, human
Description: (§1) Adhesion assays of cells other than small cell lung carcinoma (SCLC)-Adhesion was measured on polystyrene or glass substrates coated with peptides or proteins as previously described (Guo et al., 1992). Peptides dissolved in PBS at 0.4 to 50 μM were incubated in polystyrene microliter plate wells overnight at 4° C. The wells were washed 3 times with distilled water. Adsorbed peptide was quantified using the BCA assay (Pierce Chemical) measuring absorbance at 570 and 630 nm as described by the supplier's protocol. The assay for adsorption was calibrated using purified peptide in solution as a standard. After blocking with 1% BSA in Dulbecco's PBS, adhesion assays were performed by adding cells suspended in DMEM (BAE cells) or medium 199 (human cells) containing 1 mg/ml BSA. Cell attachment and spreading was quantified microscopically.

HUVEC = HUVEC spreading on coated substrates; type: cell-based, human
Description: FIGS. 14A, 14B and 14C display α3β1 and αvβ3 integrin-mediated spreading of endothelial cells on thrombospondin-1. […] Results are expressed as percent of the response for untreated cells, mean±S.D., n=3.
as §1

[2] = system: MDA-MB-435 breast carcinoma cells
Description: MDA-MB-435 cell adhesion to microliter plate wells coated with 5 uM peptide 678 was determined in the presence of the indicated concentrations of soluble carboxamidomethyl-peptide 716 or peptide 716 covalently linked to FICOLL™ as previously described (Guo et al., 1997). After washing twice to remove unattached cells, adherent cells were quantified by detection of cellular hexosaminidase using p-nitrophenyl-N-acetylglucosaminide as substrate. Released p-nitrophenol was detected by absorbance at 405 nm. Results are mean+/−SD, n=3.
In this case, the adherent cells are quantified by detection of cellular hexosaminidase using p-nitrophenyl-N-acetylglucosaminidine as substrate. Released p-nitrophenol is detected by absorbance at 405 nm.

[3] = system: MDA-MB-435 breast carcinoma cells; experiment: Direct adhesion of MDA-MB-435 cells to peptides adsorbed on polystyrene; type: cell-based, human; conditions: peptides adsorbed at 10 μM (FIG. 2)
Description: as §1

[4] = system: chick chorioallantoic membrane (CAM) angiogenesis; experiment: Chick chorioallantoic membrane (CAM) angiogenesis assay; type: in vivo, chicken; conditions: relative to control gels, mean ± SD
Description: Fertilized Leghorn chicken eggs were obtained from Ramona Duck farm (Westminster, Calif.). At day 3 of development, the embryos were placed on 100 mm petri dishes. Assays were performed as previously described (Iruela-Arispe et al., 1999). […] Peptides were filtered on Centricon P100 prior to their analysis on the CAM assays to eliminate traces of endotoxin. Pellets were applied to the outer ⅓ of the CAM, and the assay was performed for 24 h. Detection of capillary growth was done by injection of FITC-dextran in the bloodstream and observation of the pellets under a fluorescent inverted microscope. Positive controls (growth factors and vehicle), as well as negative controls (vehicle alone) were placed in the same CAM and used as reference of 100% stimulation or baseline inhibition (0%), and response to the peptides was determined according to these internal controls. Assays were performed in duplicate in each CAM and in four independent CAMs (total of 8 pellets).

H69 SCLC cells = experiment: SCLC cell adhesion to extracellular matrix proteins, H69; type: cell-based, human
Description: (§2) For adhesion assays of SCLC, these cells were washed once with RPMI 1640 and centrifuged at 400×g for 3 min. The pellet was suspended in 2.5 mM EDTA in PBS, pH 7.4 and incubated for 10 min at 37° C. After trituration three times and centrifugation, the cells were resuspended in RPMI 1640 containing 0.1% BSA (Sigma Co. St Louis, Mo.).
(§3) Adhesion of SCLC cells to extracellular matrix proteins. Extracellular matrix proteins or peptides in Dulbecco's PBS were adsorbed onto polystyrene by incubating overnight at 4° C. […] The supernatant fluid was removed, and the dishes were incubated with Tris-gelatin (ICN) (50 mM Tris-HCl, 110 mM NaCl, 5 mM CaCl2, 0.1 mM phenylmethylsulfonyl fluoride, 0.2% gelatin and 0.02% NaN3, pH 7.8) or Dulbeccos PBS with 1% BSA, as indicated, for 30 min to minimize nonspecific adhesion. The disks were washed twice with cold PBS, pH 7.2 and overlayed with dissociated SCLC cells prepared as described above at a density of 2.5×10^5/cm^2.
(§4) For inhibition studies with SCLC cells, inhibitors or antibodies were added and incubated with SCLC cells at the indicated concentrations. After incubation for 60-90 min at 37° C., the disks were washed by dipping six times in PBS, pH 7.2, fixed with 1% glutaraldehyde in PBS, pH 7.2, and stained with Diff-Quik. Attached cells were counted microscopically.

H345 SCLC cells = experiment: SCLC cell adhesion to extracellular matrix proteins, H345; type: cell-based, human
Description: as §2, §3, §4

N417 SCLC cells = experiment: SCLC cell adhesion to extracellular matrix proteins, N417; type: cell-based, human
Description: as §2, §3, §4

[5] = Table 3, 5 μM peptide 678, read-out: IC50 (μM), inhibition of MDA-MB-435 cell adhesion to immobilized peptide 678
[6] = microscopic adhesion assay, polystyrene coated with 5 μM peptide 678, peptides in solution, read-out: Inhibition of peptide 678 (IC50)
[7] = substrate coated at 6.2 μg/ml, mean ± S.D., n = 3

Description for BAE cells: Direct adhesion of BAE cells to the adsorbed peptides or uncoated substrate (control) are presented as mean±SD, n=3. […] Two flasks of BAE cells were grown to confluence. One flask was harvested and replated in fresh medium at 25% confluency. Fresh medium was added at the same time to the second flask. After 16 h, cells from both flasks were dissociated using EDTA and adhesion was measured on substrates coated with 40 μg/ml TSP1, 10 μg/ml vitronectin, 20 μg/ml plasma fibronectin, or 5 μg/ml type I collagen. The percent spread cells after 60 min is presented as mean±SD, n=3 for a representative experiment.
Results are presented as mean±SD, n=3. […] The percent spread cells was determined at 60 min.

CC(C)C[C@H](NC(=O)[C@H](CCCNC(=N)N)NC(=O)[C@H](CC(C)C)NC(=O)[C@H](CC(N)=O)NC(=O)[C@H](CCCNC(=N)N)NC(=O)[C@@H](NC(=O)[C@H](CS)NC(=O)CNC(=O)[C@H](CCCNC(=N)N)NC(=O)[C@H](Cc1ccccc1)NC(=O)[C@H](CO)NC(=O)[C@H](C)NC(=O)[C@H](CCCNC(=N)N)NC(=O)[C@H](CO)NC(=O)[C@H](CO)NC(=O)[C@H](CC(C)C)NC(=O)[C@H](CS)NC(=O)[C@H](CC(N)=O)NC(=O)[C@H](CCC(N)=O)NC(=O)[C@@H](N)CCCCN)C(C)C)C(=O)N[C@@H](CO)C(=O)N[C@@H](CCCNC(=N)N)C(=O)O [Peptide 675, reference compound] (H-KQNCLSSRASFRGCVRNLRLSR-OH; N-terminus and C-terminus assumed)
IC50 ([1]; read-out: IC50, inhibition of adhesion to either peptide or TSP1, tested in solution, data not shown): 700 µM

CN(Cc1nc2ccccc2[nH]1)C(=O)c1ccc2c(c1)CN(C)C(=O)[C@H](CC(=O)O)N2 [SB223245, reference compound]
inhibition of HUVEC spreading on TSP1 (HUVEC): did not significantly inhibit
inhibition of HUVEC spreading on vitronectin (HUVEC): completely inhibited
inhibition of BAE cell spreading on TSP1 (BAE cells; single agent): partially inhibited

AQGVLQNVRFVF [Peptide 697]
IC50 [1, 5]: 5 µM
IC50 [1, 6]: 5 µM

Ac-LQNVRF-NH2 [Peptide 681, ac-LQNVRF-am]
IC50 [1, 6]: 500 µM

Ac-QGVLQNVRF-OH [Peptide 704]
IC50 [2]: ~100 µM

ELTGAARKGSGRRLVKGPD [Hepl, focal adhesion disrupting peptide from the amino terminal domain of TSP1]
promotion of MDA-MB-435 cell adhesion [3]: did not promote

FAGVLQNVRFVF [Peptide 696]
IC50 [1, 5]: 1.8 µM
IC50 [1, 6]: 1.8 µM
Angiogenic response (% inhibition) ([4]; 5 μM peptide): 5 ± 2%
Angiogenic response (% inhibition) ([4]; 10 μM peptide): 9 ± 3%
Angiogenic response (% inhibition) ([4]; 20 μM peptide): 12 ± 4%
IC50 [2]: 12 µM

FQGVAQNVRFVF [Peptide 695]
IC50 [1, 5]: 5 µM
IC50 [1, 6]: 5 µM

FQGVLANVRFVF [Peptide 687]
IC50 [1, 5]: 3 µM
IC50 [1, 6]: 3 µM

FQGVLNNVRFVF [Peptide 698]
IC50 [1, 6]: 3 µM

FQGVLQNARFVF [Peptide 691]
IC50 [1, 5]: > 300 µM
IC50 [1, 6]: > 300 µM

FQGVLQNVHFVF [Peptide 694]
IC50 [1, 5]: 54 µM
IC50 [1, 6]: 54 µM

FQGVLQNVKFVF [Peptide 702]
IC50 [1, 5]: 6 µM
IC50 [1, 6]: 6 µM
IC50 [2]: 25 µM

FQGVLQNVQFVF [Peptide 703]
IC50 [1, 5]: > 100 µM
IC50 [1, 6]: > 100 µM
IC50 [2]: 300 µM

FQGVLQNVRAVF [Peptide 692]
IC50 [1, 5]: 18 µM
IC50 [1, 6]: 18 µM

FQGVLQNVRF [Peptide 682]
IC50 [1, 6]: 6 µM

FQGVLQNVRFVA [Peptide 693]
IC50 [1, 5]: 27 µM
IC50 [1, 6]: 27 µM

GRGDSP [reference compound]
spreading response on TSP1 resistant to the peptide (BAE cells; 300 μM GRGDSP (FIG. 14A)): Approximately 20%
inhibition of BAE cell spreading on TSP1, GRGDSP combined with the α3β1 binding peptide (BAE cells; combination with peptide 678): completely inhibited

KRFKQDGGWSHWSPWSS [Peptide 246]
promotion of MDA-MB-435 cell adhesion [3]: promoted adhesion

KRFYVVMWKK [Peptide 4N1K]
promotion of MDA-MB-435 cell adhesion [3]: promoted adhesion

LQNVRFVF [Peptide 684]
IC50 [1, 6]: 300 µM

NGVQYRNC [Peptide 500]
promotion of MDA-MB-435 cell adhesion [3]: weaker adhesive activities

QGVLQNVR [Peptide 683]
IC50 [1, 6]: > 300 µM

QGVLQNVRFVF [Peptide 685]
IC50 [1, 6]: 24 µM

SPWSSCSVTCGDGVITRIR [Mal-II]
promotion of MDA-MB-435 cell adhesion [3]: weaker adhesive activities

TPGQVRTLWHDP [Peptide 701]
IC50 [1, 6]: > 300 µM

VLQNVRFVF [Peptide 688]
IC50 [1, 6]: > 100 µM

fibronectin
SCLC cell adhesion (H69 SCLC cells; 12.5 μg/ml): 5 ± 1 cells/mm2
SCLC cell adhesion (H69 SCLC cells; 25 μg/ml): 13 ± 3 cells/mm2
SCLC cell adhesion (H69 SCLC cells; 50 μg/ml): 22 ± 7 cells/mm2
SCLC cell adhesion (H69 SCLC cells; [7]): 1 ± 1 cells/mm2
SCLC cell adhesion (H345 SCLC cells; 6.2 μg/ml): 0 cells/mm2
SCLC cell adhesion (H345 SCLC cells; 12.5 μg/ml): 6 ± 2 cells/mm2
SCLC cell adhesion (H345 SCLC cells; 25 μg/ml): 25 ± 5 cells/mm2
SCLC cell adhesion (H345 SCLC cells; 50 μg/ml): 17 ± 5 cells/mm2
SCLC cell adhesion (N417 SCLC cells; 6.2 μg/ml): 19 ± 2 cells/mm2
SCLC cell adhesion (N417 SCLC cells; 12.5 μg/ml): 48 ± 4 cells/mm2
SCLC cell adhesion (N417 SCLC cells; 25 μg/ml): 86 ± 6 cells/mm2
SCLC cell adhesion (N417 SCLC cells; 50 μg/ml): 78 ± 2 cells/mm2

laminin: murine laminin-1 purified from the EHS tumor
SCLC cell adhesion (H69 SCLC cells; 12.5 μg/ml): 16 ± 1 cells/mm2
SCLC cell adhesion (H69 SCLC cells; 25 μg/ml): 82 ± 8 cells/mm2
SCLC cell adhesion (H69 SCLC cells; 50 μg/ml): 108 ± 11 cells/mm2
SCLC cell adhesion (H69 SCLC cells; [7]): 1 ± 1 cells/mm2
SCLC cell adhesion (H345 SCLC cells; 6.2 μg/ml): 6 ± 2 cells/mm2
SCLC cell adhesion (H345 SCLC cells; 12.5 μg/ml): 8 ± 1 cells/mm2
SCLC cell adhesion (H345 SCLC cells; 25 μg/ml): 151 ± 31 cells/mm2
SCLC cell adhesion (H345 SCLC cells; 50 μg/ml): 148 ± 9 cells/mm2
SCLC cell adhesion (N417 SCLC cells; 6.2 μg/ml): 5 ± 1 cells/mm2
SCLC cell adhesion (N417 SCLC cells; 12.5 μg/ml): 78 ± 3 cells/mm2
SCLC cell adhesion (N417 SCLC cells; 25 μg/ml): 151 ± 6 cells/mm2
SCLC cell adhesion (N417 SCLC cells; 50 μg/ml): 160 ± 3 cells/mm2

peptide 716 conjugated to FICOLL: peptide 716 covalently linked to FICOLL (polysucrose) (FQGVLQNVRFVF; not fully specified (N-terminus); also: number of peptides per FICOLL polymer not given here)
inhibition of adhesion of MDA-MB-435 cells to peptide 678, compared to free peptide 716 ([2]; hexosaminidase detection): enhanced

B1: vitronectin: human vitronectin from Sigma (protein, UniProt P04004 20-478, looked up)
Vitronectin: DQESCKGRCTEGFNVDKKCQCDELCSYYQSCCTDYTAECKPQVTRGDVFTMPEDEYTVYDDGEEKNNATVHEQVGGPSLTSDLQAQSKGNPEQTPVLKPEEEAPAPEVGASKPEGIDSRPETLHPGRPQPPAEEELCSGKPFDAFTDLKNGSLFAFRGQYCYELDEKAVRPGYPKLIRDVWGIEGPIDAAFTRINCQGKTYLFKGSQYWRFEDGVLDPDYPRNISDGFDGIPDNVDAALALPAHSYSGRERVYFFKGKQYWEYQFQHQPSQEECEGSSLSAVFEHFAMMQRDSWEDIFELLFWGRTSAGTRQPQFISRDWHGVPGQVDAAMAGRIYISGMAPRPSLAKKQRFRHRNRKGYRSQRGHSRGRNQNSRRPSRATWLSLFSSEESNLGANNYDDYRMDWLVPATCEPIQSVFFFSGDKYYRVNLRTRRVDTVDPPYPRSIAQYWLGCPAPGHL
percent spread BAE cells on substrate (BAE cells; cells harvested from a confluent monolayer): approximately 60%
